Assay results from patent US12679839B2, “Cyclin-dependent kinase 7 (CDK7) non-covalent inhibitors” (JANSSEN PHARMACEUTICA NV, priority 2020, dated 2026).

Target: T1, CDK7/Cyclin H/MAT-1 complex (Homo sapiens, UniProt P50613)
T1 construct: Human CDK7 (amino acids 1-346); His6 (N); TEV protease cleavage site (N); made in house; host or cells: baculovirus-SF9 insect cells
Assay: Absorbance kinetic assay (20 nM CDK7/Cyclin H/MAT-1 complex)
Assay type: biochemical
Details: not given
Procedure, shortened: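 Trimeric complex (His6-TEV CDK7 1-346, MAT1 1-309, cyclin H 1-323) from Sf9 cells, at 20 nM, phosphorylating RNA Pol II-derived CDK7/9-tide; ADP coupled via PK/LDH to NADH depletion read at 340 nm every 2 min for 8 h. Steady-state slopes gave % inhibition; IC50 from 11-point Hill fit.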

T1 sequence (P50613 whole entry, the tested form may be a part): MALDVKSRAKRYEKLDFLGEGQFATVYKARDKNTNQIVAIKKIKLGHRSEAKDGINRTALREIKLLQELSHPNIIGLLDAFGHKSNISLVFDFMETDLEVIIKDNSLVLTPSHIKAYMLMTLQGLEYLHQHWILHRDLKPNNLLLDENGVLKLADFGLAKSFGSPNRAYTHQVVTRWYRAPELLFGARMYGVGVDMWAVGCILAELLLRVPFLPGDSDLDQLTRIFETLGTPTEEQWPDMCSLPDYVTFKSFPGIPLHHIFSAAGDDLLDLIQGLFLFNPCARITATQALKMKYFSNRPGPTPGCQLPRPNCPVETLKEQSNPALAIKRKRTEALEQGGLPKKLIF
T1 sequence (P51946 whole entry partner, the tested form may be a part): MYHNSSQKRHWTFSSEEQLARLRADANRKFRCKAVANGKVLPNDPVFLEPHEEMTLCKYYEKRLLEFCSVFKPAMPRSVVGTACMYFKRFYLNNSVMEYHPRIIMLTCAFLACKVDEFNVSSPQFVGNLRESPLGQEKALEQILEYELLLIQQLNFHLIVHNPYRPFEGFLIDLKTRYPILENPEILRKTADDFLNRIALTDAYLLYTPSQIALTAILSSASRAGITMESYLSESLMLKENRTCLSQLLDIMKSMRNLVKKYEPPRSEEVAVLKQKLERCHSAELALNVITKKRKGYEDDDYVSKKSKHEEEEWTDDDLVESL
T1 sequence (P51948 whole entry partner, the tested form may be a part): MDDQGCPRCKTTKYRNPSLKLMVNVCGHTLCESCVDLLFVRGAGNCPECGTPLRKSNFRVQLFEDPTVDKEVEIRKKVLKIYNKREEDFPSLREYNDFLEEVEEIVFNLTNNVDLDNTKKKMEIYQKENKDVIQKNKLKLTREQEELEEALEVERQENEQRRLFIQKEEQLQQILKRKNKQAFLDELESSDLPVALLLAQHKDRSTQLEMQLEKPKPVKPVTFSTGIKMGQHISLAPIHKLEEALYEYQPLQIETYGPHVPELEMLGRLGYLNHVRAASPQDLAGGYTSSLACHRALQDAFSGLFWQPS

| CDK7 (20 nM) pIC50 | Compound |
| --- | --- |
| >7.7 | C[C@@H]1Cc2cnc(NC3CCOCC3)nc2CN1C(=O)[C@H]1CCN(C)C[C@@H]1c1ccccc1 [Compound 47] |
| 7.55 | C[C@@H]1Cc2cnc(NC3CCS(=O)(=O)CC3)nc2CN1C(=O)N1CCN(C)C[C@@H]1c1ccccc1 [Compound 214] |
| 6.62 | C[C@@H]1Cc2cnc(NCC3CCS(=O)(=O)C3)nc2CN1C(=O)[C@H]1CCN(C)C[C@@H]1c1ccccc1 (stereo partly drawn) [Compound 49] |
| >8.01 | C[C@@H]1Cc2cnc(N[C@H]3CC[C@H](O)CC3)nc2CN1C(=O)[C@H]1CCN(C)C[C@@H]1c1ccccc1 [Compound 12] |
| >8.01 | C[C@@H]1Cc2cnc(NC[C@@H]3CCOC3)nc2CN1C(=O)[C@H]1CCN(C)C[C@@H]1c1ccccc1 [Compound 62] |
| 6.8 | C[C@@H]1Cc2cnc(NCc3ccn(C)n3)nc2CN1C(=O)N1CCN(C)C[C@@H]1c1ccccc1 [Compound 213] |
| 7.93 | Cc1cc(Nc2ncc3c(n2)CN(C(=O)[C@H]2CCN(C)C[C@@H]2c2ccccc2)[C@H](C)C3)ccn1 [Compound 78] |
| 7.62 | C[C@@H]1Cc2cnc(NC3CCN(CC(F)(F)F)CC3)nc2CN1C(=O)[C@H]1CCN(C)C[C@@H]1c1ccccc1 [Compound 45] |
| >8.01 | CO[C@]1(C)CC[C@@H](Nc2ncc3c(n2)CN(C(=O)[C@H]2CCN(C)C[C@@H]2c2ccccc2)[C@H](C)C3)CC1 [Compound 10] |
| 7.58 | Cc1cc(CNc2ncc3c(n2)CN(C(=O)[C@H]2CCN(C)C[C@@H]2c2ccccc2)[C@H](C)C3)nn1C [Compound 65] |
| >8.01 | CCn1ccc(CNc2ncc3c(n2)CN(C(=O)[C@H]2CCN(C)C[C@@H]2c2ccccc2)[C@H](C)C3)n1 [Compound 58] |
| 7.46 | CN1CC[C@H](C(=O)N2Cc3nc(Nc4cnn(C)c4)ncc3[C@@H]3C[C@@H]32)[C@@H](c2ccccc2)C1 [Compound 200] |
| >8.01 | CC(C)n1ccc(CNc2ncc3c(n2)CN(C(=O)[C@H]2CCN(C)C[C@@H]2c2ccccc2)[C@H](C)C3)n1 [Compound 66] |
| 7.79 | CC(C)N1CCN(C(=O)N2Cc3nc(NC4CCOCC4)ncc3C[C@H]2C)[C@@H](c2ccccc2)C1 [Compound 206] |
| >8.01 | C[C@@H]1Cc2cnc(N[C@H]3CCC[C@H](O)C3)nc2CN1C(=O)[C@H]1CCN(C)C[C@@H]1c1ccccc1 [Compound 59] |
| >8.01 | C[C@@H]1c2nc(NC3CCOCC3)ncc2[C@@H](C)CN1C(=O)[C@H]1CCN(C)C[C@@H]1c1ccccc1 [Compound 180a] |
| >8.01 | Cc1cn(C)nc1CNc1ncc2c(n1)CN(C(=O)[C@H]1CCN(C)C[C@@H]1c1ccccc1)[C@H](C)C2 [Compound 61] |
| 6.75 | CN1CC[C@H](C(=O)N2Cc3nc(NC4CCOCC4)ncc3C(C)(C)C2)[C@@H](c2ccccc2)C1 [Compound 193] |
| 6.1 | CC(C)n1cc(Nc2ncc3c(n2)CN(C(=O)[C@H]2CCN(C)C[C@@H]2c2ccccc2)[C@H](C)C3)cn1 [Compound 89] |
| 6.85 | C[C@@H]1Cc2cnc(NCc3cc(C(F)F)n(C)n3)nc2CN1C(=O)[C@H]1CCN(C)C[C@@H]1c1ccccc1 [Compound 56] |
| 8.01 | C[C@@H]1Cc2cnc(NCc3ccn(C)n3)nc2CN1C(=O)[C@H]1CCN(C)C[C@@H]1c1ccccc1 [Compound 1] |
| 7.48 | CO[C@H]1CC[C@H](Nc2ncc3c(n2)CN(C(=O)[C@H]2CCN(C)C[C@@H]2c2ccccc2)[C@H]2C[C@@H]32)CC1 [Compound 201] |
| 7.39 | C[C@@H]1Cc2cnc(NC[C@H]3CCOC3)nc2CN1C(=O)[C@H]1CCN(C)C[C@@H]1c1ccccc1 [Compound 53] |
| 7.59 | C[C@@H]1Cc2cnc(NCc3ccsc3)nc2CN1C(=O)[C@H]1CCN(C)C[C@@H]1c1ccccc1 [Compound 48] |
| 7.97 | Cc1ncc(CNc2ncc3c(n2)CN(C(=O)[C@H]2CCN(C)C[C@@H]2c2ccccc2)[C@H](C)C3)[nH]1 [Compound 52] |
| 7.72 | C[C@@H]1Cc2cnc(Nc3cnn(CC(C)(C)O)c3)nc2CN1C(=O)[C@H]1CCN(C)C[C@@H]1c1ccccc1 [Compound 74] |
| >8.01 | C[C@@H]1Cc2cnc(N[C@@H](CO)c3ccccc3)nc2CN1C(=O)[C@H]1CCN(C)C[C@@H]1c1ccccc1 [Compound 71] |
| 7.81 | C[C@@H]1Cc2cnc(NC3CCOCC3)nc2CN1C(=O)N1CCN(C)C[C@@H]1c1ccccc1 [Compound 204a] |
| 7.52 | C[C@H]1Cc2cnc(NC3(c4ccccc4)COC3)cc2CN1C(=O)[C@H]1CCN(C)C[C@@H]1c1ccccc1 (single isomer, unassigned) [Compound 175] |
| 7.15 | C[C@@H]1Cc2cnc(NC3CCOCC3)nc2CN1C(=O)[C@H]1CCN(C)C[C@@H]1c1ccc(Cl)c(F)c1 [Compound 122b] |

Same assay, conditions: read-out: CDK7 (20 nM) pIC50 (converted)

| IC50 | Compound |
| --- | --- |
| 0.234 µM | C[C@@H]1Cc2cnc(NCc3ccn(C)n3)nc2CN1C(=O)[C@@H]1CCN(C)C[C@H]1c1cccc(OC(F)(F)F)c1 (relative stereo) [Compound 127] |
| < 0.00977 µM | C[C@@H]1Cc2cnc(NCc3ccn(C)c3)nc2CN1C(=O)[C@H]1CCN(C)C[C@@H]1c1ccccc1 [Compound 60] |
| < 0.00977 µM | C[C@@H]1Cc2cnc(NC[C@@H]3CCCO3)nc2CN1C(=O)[C@H]1CCN(C)C[C@@H]1c1ccccc1 [Compound 67] |
| 0.0229 µM | C[C@H]1Cc2cnc(Nc3cnn(C)c3)cc2CN1C(=O)[C@H]1CCN(C)C[C@@H]1c1ccccc1 (relative stereo) [Compound 176] |
| 0.105 µM | Cc1ccc([C@@H]2CN(C)CC[C@H]2C(=O)N2Cc3nc(NC4CCOCC4)ncc3C[C@H]2C)cn1 (relative stereo) [Compound 108] |
| 0.0513 µM | C[C@@H]1Cc2cnc(NCc3cc[nH]n3)nc2CN1C(=O)[C@H]1CCN(C)C[C@@H]1c1ccccc1 [Compound 51] |
| 0.0155 µM | Cc1cccc([C@H]2CN(C)CC[C@@H]2C(=O)N2Cc3nc(Nc4cnn(C)c4)ncc3C[C@H]2C)c1 (relative stereo) [Compound 126] |
| 0.0288 µM | CO[C@H]1CC[C@H](Nc2cc3c(cn2)C[C@H](C)N(C(=O)[C@@H]2CCN(C)C[C@H]2c2cccc(C)c2)C3)CC1 [Compound 177a] |

Tested on: not given
Assay: not given
Details: not given

| melting point | Compound |
| --- | --- |
| 162.7 °C | C[C@@H]1Cc2cnc(NC3CCOCC3)nc2CN1C(=O)[C@H]1CCN(C)C[C@@H]1c1ccccc1 [Compound 47] |
